Here are results for one compound from PubChem BioAssay (NCI).

The test deals with P388 leukemia. Briefly: NCI tumour cell line growth inhibition, 48 h.

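These data come from cells grown in 96-well plates and exposed to compound for 48 hours at five concentrations. TGI: concentration producing complete growth inhibition.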

Take `COc1cc(O)c2c(c1)C(=O)c1cc3c(c(O)c1C2=O)C(OC1OC(C)C(O)C(O)C1OC)C(OC)C(C)(O)C3=O` (stereo unspecified): the TGI is 25.2 µM.
